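Exposure lasted 48 hours, with cells grown in 96-well plates and compounds tested at five concentrations. GI50: concentration for 50% inhibition of growth.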 Active and inactive are the calls of the source. Rule as the data show it: active = GI50 up to about 1.1 µM and inactive = higher.
Tests used:
Assay in all cases: NCI tumour cell line growth inhibition, 48 h
[1] = test system: XF498
[2] = test system: DMS-273
[3] = test system: M19-MEL
[4] = test system: SNB-78
[5] = test system: LXFL 529
[6] = test system: RXF 631
[7] = test system: DMS-114
[8] = test system: HOP-18
[9] = test system: DLD-1

Measured: GI50

CC1(C)C(=O)C(C)(C)C1=NNC(N)=S
inactive: [1] > 100 µM | [2] > 100 µM | [3] > 100 µM | [4] > 100 µM | [5] > 100 µM | [6] > 100 µM | [7] > 100 µM

NC(CCc1nc(-c2ccc(Cl)cc2)cs1)C(=O)O (stereo not given)
inactive: [2] > 100 µM | [3] > 100 µM | [4] > 100 µM | [5] > 100 µM | [8] > 100 µM | [9] > 100 µM | [6] > 100 µM

CCOC(=O)C1C(NC(N)=O)N(Cc2ccccc2)C(=O)N1Cc1ccccc1 (stereo not given)
inactive: [1] > 100 µM | [2] > 100 µM | [3] > 100 µM | [4] 15.4 µM | [5] > 100 µM | [8] > 100 µM | [9] > 100 µM | [6] > 100 µM | [7] > 100 µM

COCOCC/C=C/C=O
inactive: [1] > 100 µM | [4] > 100 µM | [5] > 100 µM | [8] > 100 µM | [9] > 100 µM | [7] > 100 µM

O=[N+]([O-])c1ccc2c(Nc3ccccc3-c3ccccc3Nc3c4ccccc4nc4cc([N+](=O)[O-])ccc34)c3ccccc3nc2c1
inactive: [1] 1.59 µM | [2] 4.58 µM | [3] 6.56 µM | [4] > 100 µM | [5] 2.61 µM | [8] > 100 µM | [9] 2.63 µM | [6] 5.9 µM | [7] 11.1 µM

O=c1c2ccccc2nc2n1-c1ccccc1SC2
inactive: [1] 30.6 µM | [2] 47.2 µM | [3] 67.1 µM | [4] > 100 µM | [5] 34.4 µM | [9] 55.5 µM | [6] 93.5 µM | [7] 34.7 µM

CN(C)CCn1cnc2sc3ccccc3c21
inactive: [1] > 100 µM | [3] > 100 µM | [4] > 100 µM | [5] > 100 µM | [8] 20.2 µM | [6] > 100 µM | [7] > 100 µM

NC1(C(=O)O)CCC(C(=O)O)CC1 (stereo not given)
inactive: [1] > 100 µM | [2] > 100 µM | [3] > 100 µM | [4] > 100 µM | [5] > 100 µM | [8] > 100 µM | [9] > 100 µM | [6] > 100 µM | [7] > 100 µM

CCOC(=O)C(=O)Nc1c(C)cccc1CC
inactive: [1] > 100 µM | [3] > 100 µM | [4] > 100 µM | [5] > 100 µM | [8] > 100 µM | [9] > 100 µM | [6] > 100 µM | [7] > 100 µM

Cc1cc(N(CCC#N)CCC#N)ccc1/N=N/c1ccc([N+](=O)[O-])cc1
inactive: [2] 17 µM | [3] > 100 µM | [4] 34.1 µM | [7] 19 µM

CN(C)CC(C)(C)C(=O)/C=C/c1ccccc1
inactive: [1] 11.6 µM | [2] 16.9 µM | [3] 16.3 µM | [4] 14.7 µM | [5] 12.3 µM | [8] 17.1 µM | [9] 12.6 µM | [7] 14.2 µM

CC(=O)CCn1[nH]c(=O)c(Cl)c(Cl)c1=O
inactive: [1] > 100 µM | [2] > 100 µM | [3] > 100 µM | [4] > 100 µM | [5] > 100 µM | [8] > 100 µM | [9] > 100 µM | [7] > 100 µM
